Assay results taken from patent US20190161480A1, “Chemical Compounds” (GLAXOSMITHKLINE INTELLECTUAL PROPERTY DEVELOPMENT LIMITED, priority 2016, published 2019).
Read-outs that look alike come from different tables or passages of the source.

How the values were obtained:
[1] = biological target: PI3Kβ (Homo sapiens, UniProt P42338); experiment: PI3K HTRF assay, PI3K-beta; format: biochemical; settings: read-out: pIC50 PI3Kβ (converted); note: 400 µM ATP
Procedure: (§1) The binding of compounds to PI3K-alpha/beta/delta/gamma is determined by homogeneous time resolved fluorescence (HTRF) assays as follows;
(§2) Briefly, solid compound is dissolved in 100% DMSO at a concentration of 2 mM. Dilutions are prepared in 100% DMSO using a 1 in 4 serial step dilution. The dilutions are transferred to black low volume Greiner assay plates ensuring that the DMSO concentration is constant across the plate at 1% (0.1 μL/well).
(§3) PI3K Reaction Buffer (contains 50 mM HEPES pH 7.0 (NaOH), 150 mM NaCl, 10 mM MgCl2, 2.3 mM sodium cholate, […] CHAPS made up in milliQ water). Fresh DTT is added at a final concentration of 1 mM on the day of use.
(§4) Enzyme solutions: 1× PI3K Assay Buffer containing: • 550 pM PI3K-Alpha enzyme (275 pM final assay concentration) • 800 pM PI3K-Beta enzyme (400 pM final assay concentration) • 3 nM PI3K-Delta enzyme (1.5 nM final assay concentration) • 10 nM PI3K-Gamma enzyme (5 nM final assay concentration)
(§5) These concentrations are optimal to achieve a signal:background of between 1.5-4.5. The enzyme solution is added to columns 1-24 (3 μL/well) and plates are incubated for 15 minutes at room temperature.
(§6) Substrate solution: 1× PI3K Assay Buffer containing: • PI3K-Alpha: 500 μM ATP, 20 μM PIP2 and 120 nM biotin-PIP3.
(§7) This is added to all wells and plates are incubated for 1 hour at room temperature.
(§8) Detection solution: PI3K Detection Buffer (contains 50 mM HEPES pH 7.0 (HCl), 150 mM NaCl, 2.3 mM sodium cholate, 10 μM CHAPS, 240 mM potassium fluoride) containing 2 mM DTT (2× final assay concentration), 90 nM GRP-1 PH domain, 300 nM Streptavidin-APC and 24 nM Europium-anti-GST (6× final assay concentrations).
(§9) This is mixed left at room temperature (protected from light).
(§10) STOP solution: PI3K STOP Buffer (contains 50 mM HEPES pH 7.0 (HCl), 150 mM NaCl, 2.3 mM sodium cholate, 10 μM CHAPS, 150 mM EDTA).
(§11) Detection solution is diluted 1:1 with STOP solution and added to all wells (3 μL/well). Plates are covered and incubated on the bench for 45-60 minutes.
(§12) Plates are read on a PerkinElmer Envision, measuring TR-FRET between the complex formed between the GST-tagged PH domain and biotinylated PIP3 which both recruit fluorophores (Europium-labelled anti-GST & Strep-APC respectively). In the […] of an inhibitor, this complex is disrupted by the competitive action of non-biotinylated PIP3 (formed in the assay by the phosphorylation of PIP2 by the kinase & ATP). From this, the ratio of acceptor/donor was calculated (λex=317 nm, Δem donor=615 nm, Δem acceptor=665 nm) and used for data analysis.

[2] = biological target: PI3Kα (Homo sapiens, UniProt P42336); experiment: PI3K HTRF assay, PI3K-alpha; format: biochemical; settings: read-out: pIC50 PI3Kα (converted); note: 250 µM ATP
Sequence of PI3Kα (P42336 whole entry, species assumed): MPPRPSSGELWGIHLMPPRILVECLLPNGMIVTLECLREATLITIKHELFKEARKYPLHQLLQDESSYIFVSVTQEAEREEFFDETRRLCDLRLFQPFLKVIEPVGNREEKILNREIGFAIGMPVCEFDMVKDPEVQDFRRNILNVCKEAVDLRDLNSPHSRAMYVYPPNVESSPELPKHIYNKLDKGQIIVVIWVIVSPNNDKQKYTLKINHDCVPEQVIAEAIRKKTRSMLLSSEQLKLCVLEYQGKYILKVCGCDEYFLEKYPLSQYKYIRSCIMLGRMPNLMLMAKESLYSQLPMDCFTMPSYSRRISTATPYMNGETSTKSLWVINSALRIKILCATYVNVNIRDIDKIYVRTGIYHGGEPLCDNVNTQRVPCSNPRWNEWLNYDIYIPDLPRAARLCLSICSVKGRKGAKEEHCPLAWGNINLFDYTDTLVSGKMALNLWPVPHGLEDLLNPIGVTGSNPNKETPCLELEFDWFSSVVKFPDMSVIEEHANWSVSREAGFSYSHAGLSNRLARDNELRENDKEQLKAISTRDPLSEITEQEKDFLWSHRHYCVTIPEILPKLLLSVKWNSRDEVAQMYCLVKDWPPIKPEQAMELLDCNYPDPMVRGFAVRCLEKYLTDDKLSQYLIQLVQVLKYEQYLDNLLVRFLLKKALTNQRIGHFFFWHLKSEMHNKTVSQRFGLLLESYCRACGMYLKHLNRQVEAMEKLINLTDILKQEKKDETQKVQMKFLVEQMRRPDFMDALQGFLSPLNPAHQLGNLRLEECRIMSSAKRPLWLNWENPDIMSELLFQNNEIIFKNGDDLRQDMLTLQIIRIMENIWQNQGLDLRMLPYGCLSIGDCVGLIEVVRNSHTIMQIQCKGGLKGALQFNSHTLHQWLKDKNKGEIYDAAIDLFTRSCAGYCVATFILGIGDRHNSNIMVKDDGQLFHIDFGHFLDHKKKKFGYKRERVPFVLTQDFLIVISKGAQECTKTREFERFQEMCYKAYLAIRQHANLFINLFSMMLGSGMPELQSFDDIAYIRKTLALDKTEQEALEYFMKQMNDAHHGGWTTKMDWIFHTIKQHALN
Sequence of PI3Kα (P27986 whole entry partner, species assumed): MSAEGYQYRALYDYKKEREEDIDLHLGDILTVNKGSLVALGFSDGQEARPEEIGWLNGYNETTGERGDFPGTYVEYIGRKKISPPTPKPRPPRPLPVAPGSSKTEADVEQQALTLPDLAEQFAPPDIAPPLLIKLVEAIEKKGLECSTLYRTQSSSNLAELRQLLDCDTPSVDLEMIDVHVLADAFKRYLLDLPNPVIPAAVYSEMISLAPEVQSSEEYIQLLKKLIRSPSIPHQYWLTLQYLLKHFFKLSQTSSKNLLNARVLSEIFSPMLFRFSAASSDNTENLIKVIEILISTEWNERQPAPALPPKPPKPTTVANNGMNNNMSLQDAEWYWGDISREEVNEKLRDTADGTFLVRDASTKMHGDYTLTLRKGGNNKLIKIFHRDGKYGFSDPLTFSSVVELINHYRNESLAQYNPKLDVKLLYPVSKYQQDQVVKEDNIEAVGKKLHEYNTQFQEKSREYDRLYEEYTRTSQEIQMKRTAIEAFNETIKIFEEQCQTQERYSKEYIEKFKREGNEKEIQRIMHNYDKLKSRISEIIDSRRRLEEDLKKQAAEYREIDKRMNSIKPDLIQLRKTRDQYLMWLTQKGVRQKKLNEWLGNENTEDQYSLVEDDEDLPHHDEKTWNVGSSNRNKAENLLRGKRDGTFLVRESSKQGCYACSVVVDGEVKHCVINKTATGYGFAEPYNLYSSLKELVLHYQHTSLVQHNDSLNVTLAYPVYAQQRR
Procedure: as §1, §2, §3, §4, §5, §6, §7, §8, §9, §10, §11, §12

[3] = biological target: T1, PI3Kδ (Homo sapiens, UniProt O00329); experiment: PI3K HTRF assay, PI3K-delta; format: biochemical; settings: read-out: pIC50 PI3Kδ (converted); note: 80 µM ATP
T1 sequence (O00329 whole entry): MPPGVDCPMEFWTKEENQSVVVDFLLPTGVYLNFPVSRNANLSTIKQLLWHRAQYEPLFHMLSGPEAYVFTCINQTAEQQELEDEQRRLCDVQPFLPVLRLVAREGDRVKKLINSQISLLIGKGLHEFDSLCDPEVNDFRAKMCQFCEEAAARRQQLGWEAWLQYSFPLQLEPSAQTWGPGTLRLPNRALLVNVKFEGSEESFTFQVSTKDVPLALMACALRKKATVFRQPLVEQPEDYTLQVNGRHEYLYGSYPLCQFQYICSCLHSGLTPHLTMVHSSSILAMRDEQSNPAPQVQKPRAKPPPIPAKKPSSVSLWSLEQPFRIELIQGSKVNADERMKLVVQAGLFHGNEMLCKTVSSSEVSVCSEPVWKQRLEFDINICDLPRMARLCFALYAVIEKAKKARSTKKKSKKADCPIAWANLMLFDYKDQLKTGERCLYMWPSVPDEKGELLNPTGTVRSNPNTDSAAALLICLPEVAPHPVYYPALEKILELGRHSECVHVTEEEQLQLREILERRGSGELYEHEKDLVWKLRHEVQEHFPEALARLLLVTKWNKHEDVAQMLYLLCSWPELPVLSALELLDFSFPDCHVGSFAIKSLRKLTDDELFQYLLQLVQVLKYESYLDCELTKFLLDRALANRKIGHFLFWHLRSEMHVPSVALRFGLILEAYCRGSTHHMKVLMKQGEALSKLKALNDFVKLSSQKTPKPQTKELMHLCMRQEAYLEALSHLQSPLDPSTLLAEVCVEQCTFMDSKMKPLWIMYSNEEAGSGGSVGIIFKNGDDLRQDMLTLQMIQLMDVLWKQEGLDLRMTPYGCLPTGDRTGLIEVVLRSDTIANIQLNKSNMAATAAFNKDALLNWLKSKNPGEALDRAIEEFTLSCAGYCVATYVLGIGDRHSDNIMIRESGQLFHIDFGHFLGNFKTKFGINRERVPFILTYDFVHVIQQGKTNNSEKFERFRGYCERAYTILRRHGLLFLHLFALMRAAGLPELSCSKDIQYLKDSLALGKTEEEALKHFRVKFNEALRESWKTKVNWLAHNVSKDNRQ
T1 sequence (P27986 whole entry partner): as the sequence (P27986 whole entry partner, species assumed) above
Procedure: as §1, §2, §3, §4, §5, §6, §7, §8, §9, §10, §11, §12

[4] = biological target: PI3Kγ (Homo sapiens, UniProt P48736); experiment: PI3K HTRF assay, PI3K-gamma; format: biochemical; settings: read-out: pIC50 PI3Kγ (converted); note: 15 µM ATP
Sequence of PI3Kγ (P48736 whole entry, species assumed): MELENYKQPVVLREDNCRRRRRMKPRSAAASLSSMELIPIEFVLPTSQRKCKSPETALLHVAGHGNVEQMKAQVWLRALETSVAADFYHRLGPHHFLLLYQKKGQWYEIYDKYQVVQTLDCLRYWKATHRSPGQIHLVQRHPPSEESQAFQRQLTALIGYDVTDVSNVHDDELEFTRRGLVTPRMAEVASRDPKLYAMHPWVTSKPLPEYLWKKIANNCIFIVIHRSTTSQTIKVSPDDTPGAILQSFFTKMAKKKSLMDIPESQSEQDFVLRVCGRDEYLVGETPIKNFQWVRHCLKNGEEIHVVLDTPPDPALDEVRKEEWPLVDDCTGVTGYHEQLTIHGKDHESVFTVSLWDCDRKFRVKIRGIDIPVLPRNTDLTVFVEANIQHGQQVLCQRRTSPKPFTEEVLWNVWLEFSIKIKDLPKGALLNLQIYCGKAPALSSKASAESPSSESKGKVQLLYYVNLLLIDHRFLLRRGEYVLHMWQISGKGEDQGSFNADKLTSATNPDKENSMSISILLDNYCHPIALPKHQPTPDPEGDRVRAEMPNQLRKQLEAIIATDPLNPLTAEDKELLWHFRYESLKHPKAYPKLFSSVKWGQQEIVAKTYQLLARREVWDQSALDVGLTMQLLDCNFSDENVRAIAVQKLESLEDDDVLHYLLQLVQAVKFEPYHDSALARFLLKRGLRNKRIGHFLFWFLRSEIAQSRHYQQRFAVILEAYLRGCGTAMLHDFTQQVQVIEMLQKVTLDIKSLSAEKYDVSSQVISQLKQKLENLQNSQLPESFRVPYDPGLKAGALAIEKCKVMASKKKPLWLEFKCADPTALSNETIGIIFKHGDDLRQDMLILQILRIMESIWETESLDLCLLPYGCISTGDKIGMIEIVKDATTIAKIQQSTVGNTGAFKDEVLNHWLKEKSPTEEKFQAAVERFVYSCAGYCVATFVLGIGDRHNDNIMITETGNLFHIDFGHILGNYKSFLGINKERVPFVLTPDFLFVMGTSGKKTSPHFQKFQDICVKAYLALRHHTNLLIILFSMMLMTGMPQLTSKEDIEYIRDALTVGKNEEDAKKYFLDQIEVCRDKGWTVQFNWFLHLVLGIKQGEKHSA
Procedure: as §1, §2, §3, §4, §5, §6, §7, §8, §9, §10, §11, §12

[5] = biological target: T1, PI3Kδ; experiment: PI3Kδ jump dilution experiment; format: biochemical; settings: 15 min incubation, 100-fold dilution, read for 30 minutes
Procedure: Irreversibility of the PI3Kδ-Inhibitor complex, and reversibility of the non-covalent controls, was determined by jump-dilution assay as follows:
PI3Kδ enzyme was made up to a 100× assay concentration (final assay concentration=6 nM) in buffer solution (contains 50 mM HEPES pH 7.0 (NaOH), 150 mM NaCl, 10 mM MgCl2, 2.3 mM sodium cholate, 10 μM CHAPS made up in milliQ water).
100× enzyme solution was added to compound wells (20 μL/well), and incubated for 15 mins, after which point the assay was diluted 100-fold with commercially available ADP QUEST substrate solution, available from DiscoverX (calatog number: 90-0071), (3200 μL DiscoverX Reagent A, 6400 μL DiscoverX Reagent B, 1 mM ATP and 40 μM PIP2). Production of fluorescence signal was then measured immediately using a Tecan Safire II plate reader at 30 second intervals for 30 minutes (λex=544 nm, λem=590 nm).

[6] = biological target: T1, PI3Kδ; experiment: Protein mass spectrometry: covalent adduct assessment and competition experiment; format: binding; settings: 10:1 inhibitor:protein, incubated overnight
Procedure: Compounds were incubated with 1 μM protein in a 10:1 inhibitor:protein ratio in buffer containing 50 mM HEPES, pH 7.0 (NaOH), 150 mM NaCl, 10 mM MgCl2, 2.3 mM cholate, 10 μM CHAPS. After the desired time, the assays were quenched with a 10% formic acid solution, and analysed by LCMS using an Agilent 6224 TOF LC/MS equipped with Agilent 1200 Series autosampler. Analytes were separated on a Polymer Labs (Agilent) PLRP-S column (50 mm×1 mm internal diameter, 5 μm particle size). LC conditions were 0.5 mL·min^−1 flow rate, 70° C., 10 μL injection volume. Gradient elution with (A) water containing 0.2% (v/v) formic acid and (B) acetonitrile containing 0.2% (v/v) formic acid. Gradient conditions were initially 10% B, increasing to 30% after 0.5 min, and then linearly to 80% B over 4.5 min, prior to a 1.2 min flush with 100% B and then a 1.9 minute equilibration with 10% B prior to the next injection. Mass spectra were then deconvoluted using Agilent MassHunter Qualitative Analysis version B.06.00 over the mass range 70-170 kDa to obtain the intact protein mass.
A potent reversible ATP competitive inhibitor was incubated with 1 μM protein in a 10:1 inhibitor:protein ratio in buffer containing 50 mM HEPES, pH 7.0 (NaOH), 150 mM NaCl, 10 mM MgCl2, 2.3 mM cholate, 10 μM CHAPS at room temperature. […] The assay was quenched at 5 min and analysed using the procedure detailed above.

[7] = biological target: CK2 protein kinase; settings: literature; cited from earlier work
[8] = test system: Class I PI3-kinases; settings: read-out: IC50 against each of the Class I PI3-kinases, cited from earlier work
[9] = test system: amphetamine-induced psychosis; settings: Law et al. 2012; cited from earlier work

Sequence of PI3Kβ (P42338 whole entry, species assumed): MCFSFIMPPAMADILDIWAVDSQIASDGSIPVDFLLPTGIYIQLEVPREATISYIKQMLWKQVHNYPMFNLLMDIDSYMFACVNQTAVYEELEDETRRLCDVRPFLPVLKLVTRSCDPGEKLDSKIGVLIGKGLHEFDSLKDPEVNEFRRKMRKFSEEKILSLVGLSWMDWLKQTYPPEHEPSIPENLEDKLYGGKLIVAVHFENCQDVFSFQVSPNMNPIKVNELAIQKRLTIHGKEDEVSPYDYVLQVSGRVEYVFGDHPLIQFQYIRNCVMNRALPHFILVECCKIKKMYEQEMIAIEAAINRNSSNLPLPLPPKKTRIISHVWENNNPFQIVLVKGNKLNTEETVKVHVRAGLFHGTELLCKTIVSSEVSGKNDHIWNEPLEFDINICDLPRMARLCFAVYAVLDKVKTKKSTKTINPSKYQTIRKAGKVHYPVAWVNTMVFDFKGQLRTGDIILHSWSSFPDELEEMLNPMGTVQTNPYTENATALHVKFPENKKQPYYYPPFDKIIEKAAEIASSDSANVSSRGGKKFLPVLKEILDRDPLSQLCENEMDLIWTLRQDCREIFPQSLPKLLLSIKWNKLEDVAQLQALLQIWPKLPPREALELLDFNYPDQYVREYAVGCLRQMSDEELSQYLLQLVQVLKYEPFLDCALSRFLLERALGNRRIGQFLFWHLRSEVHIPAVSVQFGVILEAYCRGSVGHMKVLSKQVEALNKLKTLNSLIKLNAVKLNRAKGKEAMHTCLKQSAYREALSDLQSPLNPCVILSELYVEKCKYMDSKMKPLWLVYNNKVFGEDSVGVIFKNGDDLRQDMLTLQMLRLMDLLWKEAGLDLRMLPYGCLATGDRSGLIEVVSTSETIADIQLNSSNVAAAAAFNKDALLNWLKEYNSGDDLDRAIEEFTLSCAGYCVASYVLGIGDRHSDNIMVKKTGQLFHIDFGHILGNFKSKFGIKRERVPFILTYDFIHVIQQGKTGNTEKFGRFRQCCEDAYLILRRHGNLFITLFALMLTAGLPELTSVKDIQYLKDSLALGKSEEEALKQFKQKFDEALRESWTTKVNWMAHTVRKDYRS
Sequence of PI3Kβ (P27986 whole entry partner, species assumed): as the sequence (P27986 whole entry partner, species assumed) above

With COC(=O)c1cc(-c2cc(-c3ncc(CN4CCN(C(C)C)CC4)o3)c3cn[nH]c3c2)cnc1OC.O=CO [Example 1, Methyl 5-(4-(5-((4-isopropylpiperazin-1-yl)methyl)oxazol-2-yl)-1H-indazol-6-yl)-2-methoxynicotinate] the IC50 [1] was > 31.6 µM, the IC50 [2] was 10 µM and the IC50 [3] was 0.0398 µM. The IC50 [4] was > 31.6 µM and the “Recovery of enzyme activity after jump dilution” value [5] was “Recovery of enzyme activity was observed”.
For COc1ncc(-c2cc(-c3ncc(CN4CCN(C(C)C)CC4)o3)c3cn[nH]c3c2)cc1C(=O)Oc1ccc([N+](=O)[O-])cc1 [Example 4, 4-Nitrophenyl 5-(4-(5-((4-isopropylpiperazin-1-yl)methyl)oxazol-2-yl)-1H-indazol-6-yl)-2-methoxynicotinate], the IC50 [1] was 0.0631 µM, the IC50 [2] was 0.00631 µM and the IC50 [3] was 0.000631 µM. It also gave an IC50 [4] of 1.58 µM.
For COc1ccc(OC(=O)c2cc(-c3cc(-c4ncc(CN5CCN(C(C)C)CC5)o4)c4cn[nH]c4c3)cnc2OC)cc1 [Example 10, 4-Methoxyphenyl 5-(4-(5-((4-isopropylpiperazin-1-yl)methyl)oxazol-2-yl)-1H-indazol-6-yl)-2-methoxynicotinate], the IC50 [1] was 12.6 µM, the IC50 [2] was 15.8 µM and the IC50 [3] was 0.0501 µM. It also gave an IC50 [4] of 10 µM.
In the case of COc1ncc(-c2cc(-c3ncc(CN4CCN(C(C)C)CC4)o3)c3cn[nH]c3c2)cc1C(=O)OCC(F)(F)F [Example 11, 2,2,2-Trifluoroethyl 5-(4-(5-((4-isopropylpiperazin-1-yl)methyl)oxazol-2-yl)-1H-indazol-6-yl)-2-methoxynicotinate], the IC50 [1] is reported as > 31.6 µM, the IC50 [2] is reported as 15.8 µM and the IC50 [3] is reported as 0.316 µM. The IC50 [4] was 20 µM.
COc1ncc(-c2cc(-c3ncc(CN4CCN(C(C)C)CC4)o3)c3cn[nH]c3c2)cc1C(=O)Oc1ccccc1 [Example 8, Phenyl 5-(4-(5-((4-isopropylpiperazin-1-yl)methyl)oxazol-2-yl)-1H-indazol-6-yl)-2-methoxynicotinate] gave an IC50 [1] of 3.98 µM, an IC50 [2] of 2.51 µM and an IC50 [3] of 0.00631 µM. For the same molecule, the IC50 [4] was 12.6 µM.
With COc1ncc(-c2cc(-c3ncc(CN4CCN(C(C)C)CC4)o3)c3cn[nH]c3c2)cc1C(=O)Oc1ccccc1[N+](=O)[O-] [Example 3, 2-Nitrophenyl 5-(4-(5-((4-isopropylpiperazin-1-yl)methyl)oxazol-2-yl)-1H-indazol-6-yl)-2-methoxynicotinate] the IC50 [1] was 0.2 µM, the IC50 [2] was 0.0794 µM and the IC50 [3] was 0.00501 µM. It also gave an IC50 [4] of 3.16 µM.
In the case of COc1ncc(-c2cc(-c3ncc(CN4CCN(C(C)C)CC4)o3)c3cn[nH]c3c2)cc1C(=O)O [Example 2, 5-(4-(5-((4-Isopropylpiperazin-1-yl)methyl)oxazol-2-yl)-1H-indazol-6-yl)-2-methoxynicotinic acid], the IC50 [1] is reported as 20 µM, the “Covalent modification of PI3Kδ (protein mass spectrometry)” value [6] is reported as “no modification” and the IC50 [2] is reported as 12.6 µM. The IC50 [3] was 0.0126 µM, the IC50 [4] was 15.8 µM and the “Recovery of enzyme activity after jump dilution” value [5] was “Recovery of enzyme activity was observed”.
In the case of O=c1cc(N2CCOCC2)oc2c(-c3ccccc3)cccc12 [LY294002], the IC50 [7] is listed as 5 to 10 µM and the IC50 ([8]; Fruman et al. 1998) is listed as 15 to 20 µM.
For COc1ncc(-c2cc(-c3ncc(CN4CCN(C(C)C)CC4)o3)c3cn[nH]c3c2)cc1C(=O)Oc1ccc(C(F)(F)F)cc1 [Example 6, 4-(Trifluoromethyl)phenyl 5-(4-(5-((4-isopropylpiperazin-1-yl)methyl)oxazol-2-yl)-1H-indazol-6-yl)-2-methoxynicotinate], the IC50 [1] was 6.31 µM, the IC50 [2] was 2 µM and the IC50 [3] was 0.00398 µM. It also gave an IC50 [4] of 25.1 µM.
COc1ncc(-c2cc(-c3ncc(CN4CCN(C(C)C)CC4)o3)c3cn[nH]c3c2)cc1C(=O)Oc1ccccc1C(F)(F)F [Example 5, 2-(Trifluoromethyl)phenyl 5-(4-(5-((4-isopropylpiperazin-1-yl)methyl)oxazol-2-yl)-1H-indazol-6-yl)-2-methoxynicotinate] gave an IC50 [1] of 2 µM, an IC50 [2] of 1 µM and an IC50 [3] of 0.00631 µM. It also gave an IC50 [4] of 7.94 µM.
In the case of COC[C@H]1OC(=O)c2coc3c2[C@@]1(C)C1=C(C3=O)[C@@H]2CCC(=O)[C@@]2(C)C[C@H]1OC(C)=O [Wortmannin], the IC50 ([8]; literature) is listed as 0.001 to 0.01 µM.
Work on COc1ncc(-c2cc(-c3ncc(CN4CCN(C(C)C)CC4)o3)c3cn[nH]c3c2)cc1C(=O)Oc1ccc(C)cc1C [Example 9, 2,4-Dimethylphenyl 5-(4-(5-((4-isopropylpiperazin-1-yl)methyl)oxazol-2-yl)-1H-indazol-6-yl)-2-methoxynicotinate] yielded an IC50 [1] of 15.8 µM, an IC50 [2] of 7.94 µM and an IC50 [3] of 0.398 µM. For the same molecule, the IC50 [4] was 10 µM.
For Cc1ccccc1-n1c(Cn2cnc3c(N)ncnc32)nc2cccc(C)c2c1=O [IC87114], the “Efficacy in mouse model of amphetamine-induced psychosis” value [9] is listed as “remarkable efficacy”.
